Measured values as given in PubChem BioAssay (NCI).
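Cells were grown in 96-well plates and exposed to each compound for 48 hours at five concentrations; endpoints were interpolated linearly between bracketing concentrations, or set to the highest concentration if not reached. GI50 marks 50% less growth. TGI: concentration producing complete growth inhibition.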

Tests used:
Test in all cases: growth of human tumour cells (NCI), 48 h
[1] = tested on: HCC-2998 colon
[2] = tested on: SK-MEL-5 melanoma
[3] = tested on: SF-268 CNS
[4] = tested on: ACHN renal
[5] = tested on: RXF 393 renal
[6] = tested on: BT-549 breast
[7] = tested on: KM12 colon
[8] = tested on: 786-0 renal
[9] = tested on: K-562 leukemia
[10] = tested on: HCT-116 colon
[11] = tested on: HS 578T breast
[12] = tested on: CCRF-CEM leukemia
[13] = tested on: NCI-H460 lung
[14] = tested on: CAKI-1 renal
[15] = tested on: SN12C renal
[16] = tested on: SNB-19 CNS
[17] = tested on: NCI/ADR-RES ovarian
[18] = tested on: HOP-62 NSCLC
[19] = tested on: MALME-3M melanoma
[20] = tested on: MOLT-4 leukemia
[21] = tested on: COLO 205 colon
[22] = tested on: SK-MEL-2 melanoma
[23] = tested on: SK-MEL-28 melanoma
[24] = tested on: TK-10 renal
[25] = tested on: T-47D breast
[26] = tested on: M14 melanoma
[27] = tested on: RPMI-8226 leukemia
[28] = tested on: SF-295 CNS
[29] = tested on: LOX IMVI melanoma
[30] = tested on: SR leukemia
[31] = tested on: NCI-H23 lung
[32] = tested on: OVCAR-5 ovarian
[33] = tested on: UO-31 renal
[34] = tested on: EKVX NSCLC
[35] = tested on: SK-OV-3 ovarian
[36] = tested on: MDA-MB-231 breast
[37] = tested on: SW-620 colon
[38] = tested on: PC-3 prostate
[39] = tested on: IGROV1 ovarian
[40] = tested on: HCT-15 colon
[41] = tested on: UACC-257 melanoma
[42] = tested on: NCI-H226 lung
[43] = tested on: MDA-MB-435
[44] = tested on: HOP-92 NSCLC
[45] = tested on: HT29 colon
[46] = tested on: MCF7 breast
[47] = tested on: OVCAR-8 ovarian
[48] = tested on: OVCAR-4 ovarian
[49] = tested on: DU-145 prostate
[50] = tested on: A549 NSCLC
[51] = tested on: OVCAR-3 ovarian
[52] = tested on: SF-539 CNS
[53] = tested on: HL-60(TB) leukemia
[54] = tested on: NCI-H522 lung
[55] = tested on: SNB-75 CNS
[56] = tested on: UACC-62 melanoma
[57] = tested on: A498 renal
[58] = tested on: U251 CNS

Compound `C/C(=N\NC(=S)N1CCCCC1)c1ccccn1` has a GI50 [1] of 243 nM, a TGI [1] of 6930 nM and a GI50 [2] of 69.4 nM. For the same compound, the TGI [2] was 870 nM, the GI50 [3] was 76.2 nM and the TGI [3] was 12300 nM. For the same compound, the GI50 [4] was < 11.6 nM, the TGI [4] was 7340 nM and the GI50 [5] was 295 nM. It also gave a TGI [5] of 1790 nM, a GI50 [6] of 745 nM and a TGI [6] of 5270 nM. It also gave a GI50 [7] of 63.4 nM, a TGI [7] of 4720 nM and a GI50 [8] of 51.7 nM. The TGI [8] was 2390 nM, the GI50 [9] was < 10 nM and the TGI [9] was 8760 nM. For the same compound, the GI50 [10] was < 10 nM, the TGI [10] was 1520 nM and the GI50 [11] was 142 nM. The GI50 [12] was < 14.3 nM, the TGI [12] was > 25100 nM and the GI50 [13] was < 15.1 nM. For the same compound, the TGI [13] was 1500 nM, the GI50 [14] was 103 nM and the TGI [14] was 5220 nM. For the same compound, the GI50 [15] was 290 nM, the TGI [15] was 14300 nM and the GI50 [16] was 158 nM. The TGI [16] was 14500 nM, the GI50 [17] was < 10 nM and the TGI [17] was 6770 nM. For the same compound, the GI50 [18] was < 16 nM, the TGI [18] was 3540 nM and the GI50 [19] was 145 nM. For the same compound, the TGI [19] was 3050 nM, the GI50 [20] was 17.5 nM and the TGI [20] was 1690 nM. For the same compound, the GI50 [21] was < 10 nM, the TGI [21] was 41 nM and the GI50 [22] was 702 nM. It also gave a TGI [22] of 3800 nM, a GI50 [23] of 1130 nM and a TGI [23] of 6660 nM. The GI50 [24] was 472 nM, the TGI [24] was 4140 nM and the GI50 [25] was < 10 nM. For the same compound, the TGI [25] was 5150 nM, the GI50 [26] was < 14.8 nM and the TGI [26] was 2230 nM. For the same compound, the GI50 [27] was 16 nM, the TGI [27] was 849 nM and the GI50 [28] was < 11.5 nM. For the same compound, the TGI [28] was 4500 nM, the GI50 [29] was < 10.6 nM and the TGI [29] was 9030 nM. For the same compound, the GI50 [30] was < 15.7 nM, the TGI [30] was 10700 nM and the GI50 [31] was < 10 nM. It also gave a TGI [31] of 9710 nM, a GI50 [32] of 54 nM and a TGI [32] of 13700 nM. For the same compound, the GI50 [33] was < 12.3 nM, the TGI [33] was 2290 nM and the GI50 [34] was < 14.5 nM. For the same compound, the TGI [34] was 3990 nM, the GI50 [35] was 213 nM and the TGI [35] was 1940 nM. It also gave a GI50 [36] of 123 nM, a TGI [36] of 6330 nM and a GI50 [37] of 14.2 nM. For the same compound, the TGI [37] was 7180 nM, the GI50 [38] was < 10 nM and the TGI [38] was 12600 nM. For the same compound, the GI50 [39] was < 10 nM, the TGI [39] was 5790 nM and the GI50 [40] was < 16.9 nM. For the same compound, the TGI [40] was 12600 nM, the GI50 [41] was < 10 nM and the TGI [41] was 442 nM. It also gave a GI50 [42] of 320 nM, a TGI [42] of 2950 nM and a GI50 [43] of 208 nM. For the same compound, the TGI [43] was 5890 nM, the GI50 [44] was 96.3 nM and the TGI [44] was 4540 nM. The GI50 [45] was < 10 nM, the TGI [45] was 4060 nM and the GI50 [46] was < 10 nM. For the same compound, the TGI [46] was 6130 nM, the GI50 [47] was < 10 nM and the TGI [47] was 2420 nM. The GI50 [48] was < 10 nM, the TGI [48] was 4570 nM and the GI50 [49] was 236 nM. For the same compound, the TGI [49] was 5670 nM, the GI50 [50] was 23.5 nM and the TGI [50] was 4140 nM. The GI50 [51] was < 10 nM, the TGI [51] was 1690 nM and the GI50 [52] was 257 nM. For the same compound, the TGI [52] was 6870 nM, the GI50 [53] was 52.7 nM and the TGI [53] was 2640 nM. It also gave a GI50 [54] of 136 nM, a TGI [54] of 1510 nM and a GI50 [55] of 1660 nM. The TGI [55] was 6800 nM, the GI50 [56] was 106 nM and the TGI [56] was 3930 nM. For the same compound, the GI50 [57] was 228 nM, the TGI [57] was 2320 nM and the GI50 [58] was < 10.5 nM. For the same compound, the TGI [58] was 10600 nM.

`O=c1c2c(=NCCN3CCCC3)cc3c(=O)n(CCCN4CCOCC4)c(=O)c4c(-c5ccc(CN6CCCC6)cc5)cc(c(O)n1CCCN1CCOCC1)c2c4-3` showed a GI50 [1] of 55.6 nM, a TGI [1] of 284 nM and a GI50 [2] of 133 nM. It also gave a TGI [2] of 300 nM, a GI50 [3] of 78.1 nM and a TGI [3] of 567 nM. For the same compound, the GI50 [4] was 25.7 nM, the TGI [4] was 783 nM and the GI50 [5] was 20.4 nM. The TGI [5] was 77.9 nM, the GI50 [6] was 116 nM and the TGI [6] was 500 nM. The GI50 [7] was 66.1 nM, the TGI [7] was 841 nM and the GI50 [8] was 41.6 nM. For the same compound, the TGI [8] was 383 nM, the GI50 [9] was 19.5 nM and the TGI [9] was > 100000 nM. The GI50 [10] was 10.1 nM, the TGI [10] was 209 nM and the GI50 [11] was 132 nM. The TGI [11] was 570 nM, the GI50 [12] was 67.3 nM and the TGI [12] was 1050 nM. The GI50 [13] was 24.7 nM, the TGI [13] was 245 nM and the GI50 [14] was 34.6 nM. The TGI [14] was 651 nM, the GI50 [15] was < 22.1 nM and the TGI [15] was 1370 nM. It also gave a GI50 [16] of 54 nM, a TGI [16] of 1200 nM and a GI50 [17] of 364 nM. For the same compound, the TGI [17] was 9650 nM, the GI50 [18] was 25.5 nM and the TGI [18] was 221 nM. The GI50 [19] was 105 nM, the TGI [19] was 388 nM and the GI50 [20] was < 20.6 nM. For the same compound, the TGI [20] was 5370 nM, the GI50 [21] was 64.1 nM and the TGI [21] was 327 nM. It also gave a GI50 [22] of 112 nM, a TGI [22] of 382 nM and a GI50 [23] of 156 nM. The TGI [23] was 557 nM, the GI50 [24] was 32.9 nM and the TGI [24] was 840 nM. It also gave a GI50 [25] of 100 nM, a TGI [25] of 897 nM and a GI50 [26] of 136 nM. For the same compound, the TGI [26] was 641 nM, the GI50 [27] was 36.8 nM and the TGI [27] was 409 nM. It also gave a GI50 [28] of 164 nM, a TGI [28] of 796 nM and a GI50 [29] of 36.9 nM. For the same compound, the TGI [29] was 234 nM, the GI50 [30] was < 10.8 nM and the TGI [30] was 11100 nM. It also gave a GI50 [31] of 26.1 nM, a TGI [31] of 158 nM and a GI50 [32] of 84.7 nM. It also gave a TGI [32] of 724 nM, a GI50 [33] of 38 nM and a TGI [33] of 231 nM. For the same compound, the GI50 [34] was 82.8 nM, the TGI [34] was 484 nM and the GI50 [35] was 86 nM. The TGI [35] was 1430 nM, the GI50 [36] was 39.7 nM and the TGI [36] was 384 nM. It also gave a GI50 [37] of 18.6 nM, a TGI [37] of 342 nM and a GI50 [38] of 27.8 nM. It also gave a TGI [38] of 168 nM, a GI50 [39] of 39.9 nM and a TGI [39] of 1470 nM. For the same compound, the GI50 [40] was 66.4 nM, the TGI [40] was 1110 nM and the GI50 [41] was 194 nM. For the same compound, the TGI [41] was 1330 nM, the GI50 [42] was 52.3 nM and the TGI [42] was 490 nM. It also gave a GI50 [43] of 39.5 nM, a TGI [43] of 147 nM and a GI50 [44] of 17.8 nM. The TGI [44] was 73.5 nM, the GI50 [45] was < 11.5 nM and the TGI [45] was 413 nM. For the same compound, the GI50 [46] was 28.4 nM, the TGI [46] was 446 nM and the GI50 [47] was < 25.5 nM. The TGI [47] was 2240 nM, the GI50 [48] was 49.1 nM and the TGI [48] was 230 nM. The GI50 [49] was 103 nM, the TGI [49] was 1230 nM and the GI50 [50] was 28.8 nM. The TGI [50] was 1390 nM, the GI50 [51] was 24.4 nM and the TGI [51] was 109 nM. The GI50 [52] was 61.7 nM, the TGI [52] was 274 nM and the GI50 [53] was 231 nM. For the same compound, the TGI [53] was 1640 nM, the GI50 [54] was 26.5 nM and the TGI [54] was 135 nM. It also gave a GI50 [55] of 58.2 nM, a TGI [55] of 228 nM and a GI50 [56] of 80 nM. It also gave a TGI [56] of 239 nM, a GI50 [57] of 38.1 nM and a TGI [57] of 155 nM. The GI50 [58] was 41.2 nM and the TGI [58] was 1360 nM.
